# Results from patent US20230348564A1, “ANTI-CANCER PROTEINS” (UNICHEM LABORATORIES LTD, priority 2020, published 2023).
# Tests used:
# [1] = tested on: SW620 (Human Colorectal adenocarcinoma); test: Calcein AM cytotoxicity assay; settings: SEQ ID 2 80 μg/mL, doxorubicin 100 μM; 48h
# Description: (§1) All the cancer cell lines were procured from National Centre for Cell Science, Pune (India). The cell lines were maintained under conditions as described in Table 21 below. The cell lines were sub-cultured by trypsinization followed by splitting the cell suspension into fresh flasks and supplementing with fresh culture medium.
# (§2) All the cell lines were grown in specified media at 37° C. with 95% Humidity and […].
# (§3) The cells were trypsinized, counted by Trypan blue method in Neuebauer's Chamber and plated in wells of flat bottom 96-well plate (dark walled plate, flat bottom) at the density corresponding to 10×10^3 cells/well/180 μl medium.
# (§4) Following overnight incubation, the cells were treated with test item (20 μL) at concentrations ranging from 2.5-80 μg/mL, so that the total volume in each well is 200 μL.
# (§5) The cells were incubated with the test items or positive control for a time period of 48h. Following incubation, the cell cytotoxicity was estimated using Calcein AM Cell Viability Assay Kit from R&D systems (Cat No. 4892-010-K).
# (§6) Fluorescence was measured at 485 nm (excitation/528 run (emission) spectra using Synergy HT micro plate reader.
# (§7) Percentage cytotoxicity wrt untreated cells was calculated using formula:
# (§8) Cytotoxicity=[(RFUuntreated−RFUsample)/RFUuntreated]*100
# (§9) RFU: relative fluorescence units
# (§10) IC50 value was calculated using Graph-Pad Prism version 4.01 software.
# [2] = tested on: MCF-10A (Human mammary epithelial cells); test: Calcein AM cytotoxicity assay; settings: SEQ ID 2 80 μg/mL, doxorubicin 100 μM; 48h
# Description: as §1, §2, §3, §4, §5, §6, §7, §8, §9, §10
# [3] = tested on: MCF-7 (Human breast adenocarcinoma); test: Calcein AM cytotoxicity assay; settings: SEQ ID 2 80 μg/mL, doxorubicin 100 μM; 48h
# Description: as §1, §2, §3, §4, §5, §6, §7, §8, §9, §10
# [4] = tested on: SK-Mel-28 (Human melanoma); test: Calcein AM cytotoxicity assay; settings: SEQ ID 2 80 μg/mL, doxorubicin 100 μM; 48h
# Description: as §1, §2, §3, §4, §5, §6, §7, §8, §9, §10
# [5] = tested on: PC-3 (Human Prostate Cancer); test: Calcein AM cytotoxicity assay; settings: SEQ ID 2 80 μg/mL, doxorubicin 100 μM; 48h
# Description: as §1, §2, §3, §4, §5, §6, §7, §8, §9, §10
# [6] = tested on: HT-29 (Human Colorectal adenocarcinoma); test: Calcein AM cytotoxicity assay; settings: SEQ ID 2 80 μg/mL, doxorubicin 100 μM; 48h
# Description: as §1, §2, §3, §4, §5, §6, §7, §8, §9, §10
# [7] = tested on: THP-1 (Human acute monocytic leukemia); test: Calcein AM cytotoxicity assay; settings: SEQ ID 2 80 μg/mL, doxorubicin 100 μM; 48h
# Description: as §1, §2, §3, §4, §5, §6, §7, §8, §9, §10
# [8] = tested on: PA-1 (Human Ovary carcinoma); test: Calcein AM cytotoxicity assay; settings: SEQ ID 2 80 μg/mL, doxorubicin 100 μM; 48h
# Description: as §1, §2, §3, §4, §5, §6, §7, §8, §9, §10
# [9] = tested on: ZR-75-1 (Human ductal carcinoma); test: Calcein AM cytotoxicity assay; settings: SEQ ID 2 80 μg/mL, doxorubicin 100 μM; 48h
# Description: as §1, §2, §3, §4, §5, §6, §7, §8, §9, §10
# [10] = tested on: PBMCs (Peripheral blood mononuclear cells); test: Calcein AM cytotoxicity assay; settings: SEQ ID 2 80 μg/mL, doxorubicin 100 μM; 48h
# Description: as §1, §2, §3, §4, §5, §6, §7, §8, §9, §10
# [11] = tested on: SKOV-3 (Human Ovary adenocarcinoma); test: Calcein AM cytotoxicity assay; settings: SEQ ID 2 80 μg/mL, doxorubicin 100 μM; 48h
# Description: as §1, §2, §3, §4, §5, §6, §7, §8, §9, §10
# [12] = tested on: SiHa (Human cervix squamous cell carcinoma); test: Calcein AM cytotoxicity assay; settings: SEQ ID 2 80 μg/mL, doxorubicin 100 μM; 48h
# Description: as §1, §2, §3, §4, §5, §6, §7, §8, §9, §10
# [13] = tested on: KB (Human cervical carcinoma); test: Calcein AM cytotoxicity assay; settings: SEQ ID 2 80 μg/mL, doxorubicin 100 μM; 48h
# Description: as §1, §2, §3, §4, §5, §6, §7, §8, §9, §10
# [14] = tested on: A549 (Human lung carcinoma); test: Calcein AM cytotoxicity assay; settings: SEQ ID 2 80 μg/mL, doxorubicin 100 μM; 48h
# Description: as §1, §2, §3, §4, §5, §6, §7, §8, §9, §10
# [15] = tested on: Human Primary mammary epithelial (HMEC) cells; test: Calcein AM cytotoxicity assay; settings: SEQ ID 2 80 μg/mL, doxorubicin 100 μM; 48h
# Description: as §1, §2, §3, §4, §5, §6, §7, §8, §9, §10
# [16] = tested on: AGS (Human stomach adenocarcinoma); test: Calcein AM cytotoxicity assay; settings: SEQ ID 2 80 μg/mL, doxorubicin 100 μM; 48h
# Description: as §1, §2, §3, §4, §5, §6, §7, §8, §9, §10
# [17] = tested on: VEGF release in PANC-1 cells; test: VEGF secretion in cancer cells (Human VEGF ELISA); format: cell-based; settings: 24 h
# Description: The cell lines were maintained in DMEM+10% […] (heat inactivated) at 37° C. with 5% CO2, and 95% humidity. Cells were counted and plated in 6-well plates for 24 h at a density of 0.5×10^6 cells/well. The cells were incubated overnight under growth conditions as described above so as to allow cell recovery and exponential growth. Cells were treated with each test item at different concentrations for 24h in serum free media. Doxorubicin was used as positive control. Secreted levels of VEGF were determined in supernatants after 24 hours using Human VEGF ELISA kit (R&D systems) as per manufacturer's protocol. Change in VEGF levels corresponding to each treatment was calculated using the following formula: […]
# [18] = tested on: MCF-7 (Human breast adenocarcinoma); test: MTT cytotoxicity assay; settings: SEQ ID NO. 2 80 μg/ml, doxorubicin 75 μM; 48h
# Description: as §1, with “(India). Cell” for “(India). The cell”, “as mentioned” for “as described”, “Table 23.” for “Table 21 below.”
# (§11) All the cell lines were grown in specified media at 37° C. with 95% Humidity and 5% CO2.
# (§12) The cells were trypsinized, counted by Trypan blue method in Neuebauer's Chamber and plated in wells of flat bottom 96-well plate at the density corresponding to 10×10^3 cells/well/200 μL medium.
# (§13) Following overnight incubation, the media in the plate was replenished with 180 μL/well and then the cells were treated with 20 μL of each test item at concentrations ranging from 2.5 μg/mL-80 μg/mL in triplicates, so that the total volume in each well is 200 μL.
# (§14) The untreated cells served as negative control. The cells were incubated with the test items or positive control for a time period of 48h. Following incubation, the cell cytotoxicity was estimated using MTT assay. Absorbance was measured at 540 nm. The percentage cytotoxicity corresponding to each treatment was calculated using the formula:
# (§15) % Cytotoxicity=(1−X/R)*100
# (§16) Where X=absorbance of wells corresponding to treated cells R=absorbance of untreated cells (cells maintained in growth medium only)
# as §10
# [19] = tested on: T-47D (Human mammary gland ductal carcinoma); test: MTT cytotoxicity assay; settings: SEQ ID NO. 2 80 μg/ml, doxorubicin 75 μM; 48h
# Description: as §1, with “(India). Cell” for “(India). The cell”, “as mentioned” for “as described”, “Table 23.” for “Table 21 below.”
# as §11, §12, §13, §14, §15, §16, §10
# [20] = tested on: MDA-MB-453 (Human breast metastatic carcinoma); test: MTT cytotoxicity assay; settings: SEQ ID NO. 2 80 μg/ml, doxorubicin 75 μM; 48h
# Description: as §1, with “(India). Cell” for “(India). The cell”, “as mentioned” for “as described”, “Table 23.” for “Table 21 below.”
# as §11, §12, §13, §14, §15, §16, §10
# [21] = tested on: PANC-1 (Human pancreatic epitheloid carcinoma); test: MTT cytotoxicity assay; settings: SEQ ID NO. 2 80 μg/ml, doxorubicin 75 μM; 48h
# Description: as §1, with “(India). Cell” for “(India). The cell”, “as mentioned” for “as described”, “Table 23.” for “Table 21 below.”
# as §11, §12, §13, §14, §15, §16, §10
# [22] = tested on: T24 (Human Bladder Cancer); test: MTT cytotoxicity assay; settings: SEQ ID NO. 2 80 μg/ml, doxorubicin 75 μM; 48h
# Description: as §1, with “(India). Cell” for “(India). The cell”, “as mentioned” for “as described”, “Table 23.” for “Table 21 below.”
# as §11, §12, §13, §14, §15, §16, §10
# [23] = tested on: PBMCs (Peripheral blood mononuclear cells); test: MTT cytotoxicity assay; settings: SEQ ID NO. 2 80 μg/ml, doxorubicin 75 μM; 48h
# Description: as §1, with “(India). Cell” for “(India). The cell”, “as mentioned” for “as described”, “Table 23.” for “Table 21 below.”
# as §11, §12, §13, §14, §15, §16, §10
# [24] = tested on: MDA-MB-231 (Human breast adenocarcinoma); test: MTT cytotoxicity assay; settings: SEQ ID NO. 2 80 μg/ml, doxorubicin 75 μM; 48h
# Description: as §1, with “(India). Cell” for “(India). The cell”, “as mentioned” for “as described”, “Table 23.” for “Table 21 below.”
# as §11, §12, §13, §14, §15, §16, §10
# [25] = tested on: MIA PaCa-2 (Human pancreatic carcinoma); test: MTT cytotoxicity assay; settings: SEQ ID NO. 2 80 μg/ml, doxorubicin 75 μM; 48h
# Description: as §1, with “(India). Cell” for “(India). The cell”, “as mentioned” for “as described”, “Table 23.” for “Table 21 below.”
# as §11, §12, §13, §14, §15, §16, §10
smiles,measurement,setting,value
"COc1cccc2c1C(=O)c1c(O)c3c(c(O)c1C2=O)C[C@@](O)(C(=O)CO)C[C@@H]3O[C@H]1C[C@H](N)[C@H](O)[C@H](C)O1 [Doxorubicin, reference compound]",Cytotoxicity at highest concentration tested,[1],93.5%
same,Cytotoxicity at highest concentration tested,[2],93.8%
same,Cytotoxicity at highest concentration tested,[3],60.7%
same,Cytotoxicity at highest concentration tested,[4],65.9%
same,Cytotoxicity at highest concentration tested,[5],75.3%
same,Cytotoxicity at highest concentration tested,[6],75.0%
same,Cytotoxicity at highest concentration tested,[7],33.6%
same,Cytotoxicity at highest concentration tested,[8],82.3%
same,Cytotoxicity at highest concentration tested,[9],52.6%
same,Cytotoxicity at highest concentration tested,[10],64.3%
same,Cytotoxicity at highest concentration tested,[11],61.74%
same,Cytotoxicity at highest concentration tested,[12],87.2%
same,Cytotoxicity at highest concentration tested,[13],92.0%
same,Cytotoxicity at highest concentration tested,[14],78.4%
same,Cytotoxicity at highest concentration tested,[15],87.6%
same,Cytotoxicity at highest concentration tested,[16],81.0%
same,Average absorbance at 450 nM,[17]; 10 μM,0.506
same,Percentage decrease in VEGF levels,[17]; 10 μM,73.6%
same,VEGF level,[17]; 10 μM,269.7 pg/mL
same,Average absorbance at 450 nM,[17]; 100 μM,0.483
same,Percentage decrease in VEGF levels,[17]; 100 μM,75.1%
same,VEGF level,[17]; 100 μM,254.6 pg/mL
same,Cytotoxicity at highest concentration tested,[18],64.9%
same,Cytotoxicity at highest concentration tested,[19],51.1%
same,Cytotoxicity at highest concentration tested,[20],71.4%
same,Cytotoxicity at highest concentration tested,[21],65.1%
same,Cytotoxicity at highest concentration tested,[22],54.4%
same,Cytotoxicity at highest concentration tested,[23],32.0%
same,Cytotoxicity at highest concentration tested,[24],50.2%
same,Cytotoxicity at highest concentration tested,[25],63.9%
